The results in this text go back to the NIST ThermoML archive (doi:10.1021/je060146z).

SMILES strings stand for the structures. Numbers after ± are expanded uncertainties.

For the data set the following is noted: Crystal.
For `CCCCCCCCCC(=O)O` [decanoic acid], the Normal melting temperature was determined as 31.27 ± 1.2 °C. As for `CCCCCCCCCCCCCC(=O)O` [tetradecanoic acid], the Normal melting temperature was 54.33 ± 1.2 °C. To `CCCCCCCCCCCC(=O)O` [dodecanoic acid] belongs 43.79 ± 1.2 °C; to `CCCCCCCCCCCCCCCCCC(=O)O` [octadecanoic acid], 68.76 ± 1.2 °C; to `CCCCCCCCCCCCCCCC(=O)O` [hexadecanoic acid], 62.29 ± 1.2 °C.
